Here are results for 8 molecules from PubChem BioAssay (NCI).

Some test systems named below: HCC-2998 colon; HCT-15 colon; HS 578T breast; HT29 colon; MDA-MB-231 breast; MOLT-4 leukemia; OVCAR-4 ovarian; SK-MEL-2 melanoma; SK-MEL-28 melanoma; TK-10 renal.
Holding throughout (assay): NCI tumour cell line growth inhibition, 48 h

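Results reflect a 48-hour exposure of cells in 96-well plates to compound at five concentrations. GI50 = concentration required for 50% inhibition of growth. TGI marks complete inhibition of growth.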

For `C=CCc1c(O)c(C(=O)/C=C/c2ccc(Cl)cc2)c(OC)c2ccoc12`, the GI50 in the assay with HCC-2998 colon was 1.79 µM; with HCT-15 colon, 3.4 µM; with HS 578T breast it was 4.02 µM; in the assay on HT29 colon it was 1.89 µM; in the assay with MDA-MB-231 breast, 4.3 µM; in the assay with MOLT-4 leukemia, 2.61 µM. For the same molecule, the GI50 was 2.77 µM with OVCAR-4 ovarian, 3.97 µM in the assay with SK-MEL-2 melanoma, 2.32 µM in the assay on SK-MEL-28 melanoma and 3.62 µM with TK-10 renal. The TGI in the assay with HCC-2998 colon was 3.26 µM; in the assay on HCT-15 colon, 12.9 µM; in the assay on HS 578T breast, 42.4 µM; in the assay with HT29 colon, 3.98 µM; with MDA-MB-231 breast, 16.8 µM; in the assay with MOLT-4 leukemia it was more than 100 µM. For the same molecule, the TGI with OVCAR-4 ovarian is 13.1 µM; in the assay with SK-MEL-2 melanoma, 14.7 µM; with SK-MEL-28 melanoma it was 5.53 µM; in the assay on TK-10 renal, 12.9 µM.

Take `CCC(=O)NC1=C(Cl)C(=O)C(NC(=O)CC)=C(Cl)C1=O`: the GI50 in the assay with HCC-2998 colon was 17.4 µM; in the assay with HCT-15 colon it was 9.02 µM; with HS 578T breast, 26.6 µM; with HT29 colon, 25.2 µM; in the assay with MDA-MB-231 breast it was 16.9 µM; in the assay with MOLT-4 leukemia, 9.55 µM. Besides, the GI50 in the assay on OVCAR-4 ovarian was 14.4 µM; in the assay with SK-MEL-2 melanoma it was 20.6 µM; in the assay with SK-MEL-28 melanoma, 10.5 µM; with TK-10 renal it was 6.91 µM. Also, the TGI in the assay with HCC-2998 colon was 32.1 µM; in the assay with HCT-15 colon it was 27.1 µM; in the assay on HS 578T breast, 69.7 µM; with HT29 colon, 53.3 µM; with MDA-MB-231 breast it was 31.2 µM; in the assay with MOLT-4 leukemia, more than 21.9 µM. Besides, the TGI worked out at 29 µM in the assay with OVCAR-4 ovarian, 39.5 µM in the assay with SK-MEL-2 melanoma, 23.2 µM in the assay on SK-MEL-28 melanoma and 15.4 µM with TK-10 renal.

With `COc1cc2ncnc(Oc3ccc(NC(=O)Nc4ccc(CN5CCOCC5)c(C(F)(F)F)c4)c4ccccc34)c2cc1OC`, the GI50 in the assay on HCC-2998 colon is 4.8 µM; in the assay with HCT-15 colon, 1.04 µM; in the assay with HS 578T breast, 1.28 µM; in the assay on HT29 colon, 0.547 µM; in the assay on MDA-MB-231 breast it was 1.2 µM; in the assay with MOLT-4 leukemia, 0.199 µM. The GI50 with OVCAR-4 ovarian is 0.124 µM; in the assay with SK-MEL-2 melanoma, 1.61 µM; in the assay with SK-MEL-28 melanoma it was 0.666 µM; in the assay with TK-10 renal, 0.445 µM. Also, the TGI with HCC-2998 colon amounted to 18.8 µM; in the assay with HCT-15 colon, 4.7 µM; in the assay on HS 578T breast it was 7.27 µM; in the assay on HT29 colon, 10.3 µM; in the assay on MDA-MB-231 breast, 6.32 µM; in the assay with MOLT-4 leukemia, 2.08 µM. Further, the TGI is 8.69 µM in the assay with OVCAR-4 ovarian, 8.3 µM in the assay with SK-MEL-2 melanoma, 3.03 µM in the assay on SK-MEL-28 melanoma and 6.95 µM in the assay with TK-10 renal.

Regarding `COc1nn(C)cc1Nc1nccc(-c2c[nH]c3c(NC(=O)[C@@H](C)N4CCN(C)CC4)cccc23)n1`, the GI50 is more than 100 µM in the assay on HCC-2998 colon; 37.6 µM in the assay with HCT-15 colon; 27 µM with HS 578T breast; 29.4 µM with HT29 colon; 34.9 µM with MDA-MB-231 breast; 37.8 µM in the assay with MOLT-4 leukemia. Moreover, the GI50 was 47.9 µM in the assay with OVCAR-4 ovarian, 25 µM in the assay with SK-MEL-2 melanoma, 53.9 µM in the assay with SK-MEL-28 melanoma and 44.1 µM in the assay with TK-10 renal. In addition, the TGI with HCC-2998 colon, with HCT-15 colon, in the assay on HS 578T breast, in the assay on HT29 colon, in the assay with MDA-MB-231 breast and with MOLT-4 leukemia was more than 100 µM in each case. Besides, the TGI is more than 100 µM with OVCAR-4 ovarian, 74.5 µM with SK-MEL-2 melanoma, more than 100 µM in the assay with SK-MEL-28 melanoma and more than 100 µM in the assay on TK-10 renal.

For `OC(c1cc(C(F)(F)F)nc2c(Cl)cc(Cl)cc12)C1CCCCN1` (stereo not given), the TGI in the assay with HCC-2998 colon is more than 100 µM; in the assay with HCT-15 colon, 27.4 µM; in the assay on HS 578T breast it was more than 48.4 µM; in the assay on HT29 colon it was more than 38.9 µM; in the assay on MDA-MB-231 breast, more than 44.8 µM; in the assay on MOLT-4 leukemia, 22.9 µM. The TGI is 18.3 µM with OVCAR-4 ovarian, more than 43.8 µM in the assay on SK-MEL-2 melanoma, 29.5 µM in the assay on SK-MEL-28 melanoma and more than 32.8 µM in the assay with TK-10 renal.

As to `CCN1CCN(C(=O)[C@]23CC[C@@H](C)[C@H](C)[C@@H]2C2=CC[C@@H]4[C@@]5(C)CCC(=O)C(C)(C)[C@@H]5CC[C@@]4(C)[C@]2(C)CC3)CC1`, the GI50 was 0.922 µM in the assay on HCC-2998 colon; 0.977 µM in the assay on HCT-15 colon; 1.07 µM in the assay on HS 578T breast; 0.913 µM in the assay with HT29 colon; 0.779 µM in the assay with MDA-MB-231 breast; 0.809 µM in the assay on MOLT-4 leukemia. For the same molecule, the GI50 in the assay on OVCAR-4 ovarian is 1.26 µM; with SK-MEL-2 melanoma, 1.29 µM; in the assay with SK-MEL-28 melanoma, 0.889 µM; in the assay with TK-10 renal, 1.27 µM. Besides, the TGI was 1.82 µM with HCC-2998 colon; 2.39 µM in the assay with HCT-15 colon; 2.68 µM in the assay with HS 578T breast; 2.05 µM in the assay on HT29 colon; 1.5 µM in the assay with MDA-MB-231 breast; 1.99 µM with MOLT-4 leukemia. Also, the TGI in the assay with OVCAR-4 ovarian was found to be 4.74 µM; in the assay with SK-MEL-2 melanoma, 3.33 µM; with SK-MEL-28 melanoma it was 1.7 µM; in the assay with TK-10 renal, 4.14 µM.

As to `Cc1[nH]nc(C(F)(F)F)c1Cc1sc2c(c1C(=O)N1C[C@](C)(O)CO1)c(=O)n(C)c(=O)n2C(C)C`, the GI50 in the assay on HCC-2998 colon, with HCT-15 colon, with HS 578T breast, in the assay with HT29 colon, with MDA-MB-231 breast and with MOLT-4 leukemia was more than 100 µM throughout. The GI50 in the assay with OVCAR-4 ovarian, with SK-MEL-2 melanoma, in the assay with SK-MEL-28 melanoma and in the assay with TK-10 renal was more than 100 µM each time. Further, the TGI in the assay on HCC-2998 colon, in the assay on HCT-15 colon, in the assay with HS 578T breast, in the assay with HT29 colon, in the assay on MDA-MB-231 breast and with MOLT-4 leukemia was more than 100 µM each time. In addition, the TGI in the assay with OVCAR-4 ovarian, in the assay with SK-MEL-2 melanoma, in the assay on SK-MEL-28 melanoma and in the assay on TK-10 renal was more than 100 µM throughout.

For `Nc1nc(-c2ccc3c(c2)/C(=C\c2cc(Br)c(O)c(Br)c2)C(=O)N3)cs1`, the GI50 is 17.8 µM in the assay with HCC-2998 colon; more than 20.2 µM in the assay with HCT-15 colon; 9.98 µM in the assay with HS 578T breast; 11.2 µM in the assay on HT29 colon; 17.3 µM in the assay on MDA-MB-231 breast; 16.2 µM in the assay with MOLT-4 leukemia. Also, the GI50 in the assay on OVCAR-4 ovarian was more than 25 µM; in the assay with SK-MEL-2 melanoma, 6.96 µM; with SK-MEL-28 melanoma it was 7.99 µM; with TK-10 renal, more than 25 µM. Also, the TGI in the assay with HCC-2998 colon, with HCT-15 colon, with HS 578T breast, in the assay with HT29 colon, with MDA-MB-231 breast and with MOLT-4 leukemia was more than 25 µM throughout. Moreover, the TGI in the assay on OVCAR-4 ovarian was more than 25 µM; in the assay with SK-MEL-2 melanoma, more than 17.6 µM; in the assay on SK-MEL-28 melanoma, more than 25 µM; in the assay with TK-10 renal, more than 25 µM.
